Experiment: molar heat capacity at constant pressure
Settings: 101.33 kPa, Vacuum adiabatic calorimetry

CCOC(=O)C(NC(C)=O)C(=O)OCC [diethyl 2-acetamidomalonate]
Settings	molar heat capacity at constant pressure [J/K/mol]
222.8 K, Crystal	246.7
225 K, Crystal	248.7
225.75 K, Crystal	249.4
228.73 K, Crystal	251.2
230 K, Crystal	252.7
231.68 K, Crystal	254.7
234.64 K, Crystal	256.9
235 K, Crystal	256.7
237.58 K, Crystal	259.4
240 K, Crystal	260.7
240.49 K, Crystal	260.9
244 K, Crystal	264.3
245 K, Crystal	264.8
247.5 K, Crystal	267.7
250 K, Crystal	268.8
250.46 K, Crystal	269.6
253.49 K, Crystal	272.7
255 K, Crystal	273
256.52 K, Crystal	275
259.52 K, Crystal	277.5
260 K, Crystal	277.2
262.52 K, Crystal	280.1
265 K, Crystal	281.4
265.5 K, Crystal	282.4
268.47 K, Crystal	283.8
270 K, Crystal	285.7
271.42 K, Crystal	286.1
274.37 K, Crystal	289.5
275 K, Crystal	290.2
277.31 K, Crystal	290.7
280 K, Crystal	294.7
280.26 K, Crystal	293.6
283.28 K, Crystal	297.4
285 K, Crystal	299.3
286.35 K, Crystal	300.4
289.39 K, Crystal	302.9
290 K, Crystal	304.1
292.4 K, Crystal	306.6
295 K, Crystal	309
295.4 K, Crystal	308.5
298.15 K, Crystal	312.2
298.4 K, Crystal	312
300 K, Crystal	314.1
301.4 K, Crystal	314.7
304.39 K, Crystal	318.4
305 K, Crystal	319.3
307.37 K, Crystal	321.4
310 K, Crystal	324.7
310.35 K, Crystal	325.7
313.32 K, Crystal	329.7
315 K, Crystal	330.4
316.34 K, Crystal	332.9
319.44 K, Crystal	336.2
320 K, Crystal	336.2
322.53 K, Crystal	340.6
325 K, Crystal	342.2
325.61 K, Crystal	343
328.68 K, Crystal	346.8
330 K, Crystal	348.5
331.74 K, Crystal	350.7
334.79 K, Crystal	354.3
335 K, Crystal	355
337.83 K, Crystal	358
340 K, Crystal	361.7
340.85 K, Crystal	362.6
343.87 K, Crystal	367.1
345 K, Crystal	368.6
372.62 K, Liquid	463.3
375 K, Liquid	465
375.92 K, Liquid	465.4
379.02 K, Liquid	467.3
380 K, Liquid	467.7
382.13 K, Liquid	468.9
385 K, Liquid	470.4
385.23 K, Liquid	470.4
388.37 K, Liquid	472.1
390 K, Liquid	472.9
391.51 K, Liquid	473.6
394.65 K, Liquid	475.2
395 K, Liquid	475.3

From the NIST ThermoML archive (doi:10.1021/je400159e)
